Measurements: patent US9365588B2, “Benzoxazines as modulators of ion channels” (Vertex Pharmaceuticals Incorporated, priority 2011, dated 2016)

target: human NaV 1.7 (Homo sapiens, UniProt Q15858); assay: E-VIPR optical membrane potential assay with electrical stimulation; assay type: cell-based; conditions: sodium channel inhibition; read-out: Binned Activity Data (IC50)
Outline: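 Membrane-potential read-out: background-subtracted 460 nm/580 nm ratio during a 9 s current-controlled stimulus, 400 Hz scan. Before stimulation, NaV1.7-HEK cells carried coumarin/oxonol dye and compound (final DMSO 0.625%) for 20–35 min at room temperature; tetracaine 125 μM served as positive control.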

human NaV 1.7, sequence (Q15858 whole entry): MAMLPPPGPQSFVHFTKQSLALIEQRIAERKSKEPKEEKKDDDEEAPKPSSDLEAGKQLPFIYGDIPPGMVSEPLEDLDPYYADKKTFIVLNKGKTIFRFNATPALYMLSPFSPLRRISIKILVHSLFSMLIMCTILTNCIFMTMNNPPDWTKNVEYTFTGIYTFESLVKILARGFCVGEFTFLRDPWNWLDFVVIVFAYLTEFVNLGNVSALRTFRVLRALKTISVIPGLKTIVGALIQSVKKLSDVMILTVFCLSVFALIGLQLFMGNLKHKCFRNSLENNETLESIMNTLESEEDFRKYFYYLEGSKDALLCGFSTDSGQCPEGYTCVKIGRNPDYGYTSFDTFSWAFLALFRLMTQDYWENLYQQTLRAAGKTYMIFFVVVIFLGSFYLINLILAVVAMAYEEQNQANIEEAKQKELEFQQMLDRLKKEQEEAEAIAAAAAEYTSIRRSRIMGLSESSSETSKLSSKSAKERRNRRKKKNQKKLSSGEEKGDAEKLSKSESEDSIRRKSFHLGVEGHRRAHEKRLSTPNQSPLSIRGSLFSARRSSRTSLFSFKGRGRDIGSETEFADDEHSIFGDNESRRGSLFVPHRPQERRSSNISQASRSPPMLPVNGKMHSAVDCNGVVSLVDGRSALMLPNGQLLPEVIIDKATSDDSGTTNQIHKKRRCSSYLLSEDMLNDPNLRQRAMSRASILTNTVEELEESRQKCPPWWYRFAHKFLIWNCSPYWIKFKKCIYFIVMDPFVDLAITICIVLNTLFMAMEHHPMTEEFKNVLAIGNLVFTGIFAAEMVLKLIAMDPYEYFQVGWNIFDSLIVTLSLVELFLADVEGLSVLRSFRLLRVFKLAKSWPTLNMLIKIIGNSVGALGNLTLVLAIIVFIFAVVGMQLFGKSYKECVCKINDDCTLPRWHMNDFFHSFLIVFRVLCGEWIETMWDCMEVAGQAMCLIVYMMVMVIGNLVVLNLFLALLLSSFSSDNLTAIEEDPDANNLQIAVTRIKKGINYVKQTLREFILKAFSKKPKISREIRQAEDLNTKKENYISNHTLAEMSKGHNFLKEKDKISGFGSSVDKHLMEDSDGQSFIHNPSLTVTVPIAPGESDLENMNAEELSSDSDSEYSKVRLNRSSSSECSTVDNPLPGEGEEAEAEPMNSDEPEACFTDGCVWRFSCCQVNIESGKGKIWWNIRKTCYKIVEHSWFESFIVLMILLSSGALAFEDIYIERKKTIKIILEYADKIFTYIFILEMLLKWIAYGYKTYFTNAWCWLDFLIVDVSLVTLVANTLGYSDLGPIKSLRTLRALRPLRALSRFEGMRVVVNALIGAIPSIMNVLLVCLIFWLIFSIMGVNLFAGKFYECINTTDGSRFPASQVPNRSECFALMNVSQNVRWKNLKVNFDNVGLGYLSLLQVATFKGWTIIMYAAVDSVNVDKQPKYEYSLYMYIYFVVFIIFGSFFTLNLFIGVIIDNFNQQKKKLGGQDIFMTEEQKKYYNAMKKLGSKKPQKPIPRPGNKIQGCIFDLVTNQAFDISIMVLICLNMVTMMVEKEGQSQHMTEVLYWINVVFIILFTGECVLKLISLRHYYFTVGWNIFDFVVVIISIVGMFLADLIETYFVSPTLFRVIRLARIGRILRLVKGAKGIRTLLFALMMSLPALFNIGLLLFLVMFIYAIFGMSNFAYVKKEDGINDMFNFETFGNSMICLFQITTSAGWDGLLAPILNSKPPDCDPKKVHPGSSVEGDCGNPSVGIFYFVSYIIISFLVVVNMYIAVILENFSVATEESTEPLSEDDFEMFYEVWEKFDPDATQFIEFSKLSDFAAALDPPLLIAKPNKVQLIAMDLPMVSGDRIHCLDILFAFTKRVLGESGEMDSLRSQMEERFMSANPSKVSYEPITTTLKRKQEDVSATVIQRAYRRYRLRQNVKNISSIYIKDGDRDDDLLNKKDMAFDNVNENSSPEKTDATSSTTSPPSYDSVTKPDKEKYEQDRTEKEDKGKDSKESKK

Structure (SMILES)	IC50 [µM]
Cc1cc(C#N)n2c1C1(CCN(C(=O)c3ccc(S(=O)(=O)C(C)C)cc3)CC1)Oc1ccccc1-2 [Compound 549]	≤ 2
CCc1ccc(C(=O)N2CCC3(CC2)Oc2cc(COC)ccc2-n2cccc23)cc1OC [Compound 669]	≤ 2
COc1cc(C(=O)N2CCC3(CC2)Oc2cc(Cl)ccc2-n2cccc23)ccc1C(C)CO (stereo not shown) [Compound 609]	≤ 2
COc1ccc(C(=O)N2CCC3(CC2)Oc2ccccc2-n2cccc23)cc1S(C)(=O)=O [Compound 41]	≤ 2
O=C(c1ccnc(N2CCCCC2)c1)N1CCC2(CC1)Oc1ccccc1-n1cccc12 [Compound 551]	≤ 2
COCCOc1cc(C(=O)N2CCC3(CC2)Oc2cc(Cl)ccc2-n2cccc23)ccn1 [Compound 706]	≤ 2
Cc1cc(C(=O)N2C3CCC2CC2(C3)Oc3ccccc3-n3cccc32)ccc1OC(C)C (stereo not shown) [Compound 32]	≤ 2
CC(C)Oc1ccc(C(=O)N2CCC3(CC2)Oc2ccccc2-n2cccc23)cc1C(N)=O [Compound 517]	≤ 2
COc1cc(C(=O)N2CCC3(CC2)Oc2ccccc2-n2c(C#N)ccc23)ccc1C(C)(C)CO [Compound 698]	≤ 2
CCCOc1ccc(C(=O)N2CCC3(CC2)Oc2cc(F)ccc2-n2cccc23)cc1C(F)(F)F [Compound 631]	≤ 2
COC[C@H](C)Oc1ccc(C(=O)N2CCC3(CC2)Oc2ccccc2-n2cccc23)cc1OC [Compound 725]	≤ 2
CC(C)(O)c1ccc(C(=O)N2CCC3(CC2)Oc2ccccc2-n2c(C#N)ccc23)cc1CO [Compound 364]	≤ 2
O=C(c1ccccc1)N1CCC2(CC1)Oc1ccccc1-n1cccc12 [Compound 241]	> 5
CC(C)S(=O)(=O)c1ccc(C(=O)N2CCC3(CC2)Oc2ccccc2-n2ccnc23)cc1 [Compound 119]	2 to 5
CCc1ccc(C(=O)N2CCC3(CC2)Oc2ccccc2-n2c(C#N)ccc23)cc1OC [Compound 839]	≤ 2
CC(C)S(=O)(=O)c1ccc(C(=O)N2CCC3(CC2)Oc2cc(Cl)ccc2-n2c(C#N)ccc23)cc1 [Compound 679]	2 to 5
COc1c(CO)cccc1C(=O)N1CCC2(CC1)Oc1ccccc1-n1c(C#N)ccc12 [Compound 3]	≤ 2
COc1cc(C(=O)N2CCC3(CC2)Oc2ccccc2-n2cccc23)ccc1OCCO [Compound 97]	≤ 2
COc1c(F)cccc1C(=O)N1CCC2(CC1)Oc1ccccc1-n1c(C#N)ccc12 [Compound 24]	≤ 2
Cn1ncc2c1-c1ccccc1OC21CCN(C(=O)c2ccc(OC3CCCC3)cc2)CC1 [Compound 828]	≤ 2
O=C(c1ccc(OCC2CCCO2)c(C(F)(F)F)c1)N1CCC2(CC1)Oc1ccccc1-n1cccc12 (stereo not shown) [Compound 836]	≤ 2

Structure (SMILES)	IC50 [µM]
COc1ccc(C(=O)N2CCC3(CC2)Oc2cc(Cl)ccc2-n2cccc23)cc1S(N)(=O)=O [Compound 736]	> 5
COc1ccc(C(=O)N2CCC3(CC2)Oc2cc(Cl)ccc2-n2cccc23)c(OC(F)(F)F)c1 [Compound 729]	≤ 2
O=C(c1ccc2nc(Cl)sc2c1)N1CCC2(CC1)Oc1ccccc1-n1c(C(F)(F)F)ccc12 [Compound 505]	2 to 5
CC(c1ccc(C(=O)N2CCC3(CC2)Oc2ccccc2-n2c(C#N)ccc23)cc1)S(C)(=O)=O (stereo not shown) [Compound 781]	2 to 5
Cn1ncc2c1-c1ccccc1OC21CCN(C(=O)c2cnn(-c3ccccc3)c2C(F)(F)F)CC1 [Compound 550]	2 to 5
CC(C)(C)S(=O)(=O)c1ccc(C(=O)N2CCC3(CC2)Oc2ccccc2-n2cccc23)cc1 [Compound 327]	≤ 2
COc1cc(C(=O)N2CCC3(CC2)Oc2ccccc2-n2c(C#N)ccc23)ccc1OC[C@H](O)CO [Compound 398]	2 to 5
O=C(c1ccc(S(=O)(=O)C2CCOC2)cc1)N1CCC2(CC1)Oc1ccccc1-n1c(C(F)(F)F)ccc12 (stereo not shown) [Compound 840]	≤ 2
CC(C)(C)S(=O)(=O)c1ccc(C(=O)N2CCC3(CC2)Oc2ccccc2-n2c(C#N)ccc23)cc1 [Compound 869]	≤ 2
Cc1cc(C(=O)N2CCC3(CC2)Oc2cc(Cl)ccc2-n2cccc23)ccc1OCC1CCCO1 (stereo not shown) [Compound 547]	≤ 2
COCCOc1ccc(C(=O)N2CCC3(CC2)Oc2ccccc2-c2c3cnn2CC(F)(F)F)cc1OC [Compound 391]	2 to 5
Cc1cc(C(F)F)n2ncc(C(=O)N3CCC4(CC3)Oc3ccccc3-n3c(C(F)(F)F)ccc34)c2n1 [Compound 876]	≤ 2
COc1cc(OC)cc(C(=O)N2CCC3(CC2)Oc2cc(Cl)ccc2-n2cccc23)c1 [Compound 534]	≤ 2
CC(C)Oc1ccc(C(=O)N2CCC3(CC2)Oc2ccccc2-n2c(C#N)ccc23)c(F)c1 [Compound 318]	≤ 2
Cc1ccc(C(=O)N2CCC3(CC2)Oc2ccccc2-n2cccc23)cc1C [Compound 159]	≤ 2
COC[C@@H](C)Oc1ccc(C(=O)N2CCC3(CC2)Oc2cc(F)ccc2-n2cccc23)cc1OC [Compound 303]	≤ 2
COc1ccc(C(=O)N2CCC3(CC2)Oc2ccccc2-n2ccc(C)c23)cc1C(F)(F)F [Compound 181]	≤ 2
COc1cc(Cl)ccc1C(=O)N1CCC2(CC1)Oc1cc(Cl)ccc1-n1cccc12 [Compound 434]	≤ 2
CC(C)Oc1ccc(C(=O)N2CCC3(CC2)Oc2ccccc2-n2c(C#N)ccc23)c(CO)c1 [Compound 310]	≤ 2
COc1cc(C(=O)N2CCC3(CC2)Oc2cc(Cl)ccc2-n2cccc23)ccc1C1CC1 [Compound 512]	≤ 2

The next lines start with the values.

IC50 [µM]	Structure (SMILES)
≤ 2	CC(C)NS(=O)(=O)c1ccc(C(=O)N2CCC3(CC2)Oc2ccccc2-c2nn(C)cc23)cc1 [Compound 501]
≤ 2	CC(C)Oc1ccc(C(=O)N2CCC3(CC2)Oc2ccc(F)cc2-c2nn(C)cc23)cc1 [Compound 117]
> 5	COc1ccc(F)c(F)c1C(=O)N1CCC2(CC1)Oc1ccccc1-c1c2cnn1C [Compound 353]
≤ 2	CCn1ncc2c1-c1ccccc1OC21CCN(C(=O)c2cccc(F)c2OC)CC1 [Compound 154]
≤ 2	COc1cc(C(=O)N2CCC3(CC2)Oc2cc(F)ccc2-n2cccc23)ccc1OCC(N)=O [Compound 772]
≤ 2	COc1cccc2c1c(C(=O)N1CCC3(CC1)Oc1ccccc1-c1c3cnn1C)cn2C [Compound 487]
≤ 2	Cn1cc2c(n1)-c1ccccc1OC21CCN(C(=O)c2ccc(S(=O)(=O)NC(C)(C)C)cc2)CC1 [Compound 824]
≤ 2	COCCOc1cc(F)c(C(=O)N2CCC3(CC2)Oc2cc(F)ccc2-n2cccc23)cc1OC [Compound 312]
≤ 2	CCc1ccccc1C(=O)N1CCC2(CC1)Oc1ccccc1-c1c2cnn1C [Compound 546]
≤ 2	Cc1cc(C(=O)N2CCC3(CC2)Oc2ccccc2-n2cccc23)ccc1OC(C)(C)C [Compound 538]
≤ 2	Cn1ncc2c1-c1ccccc1OC21CCN(C(=O)c2ccc3nc(N)sc3c2)CC1 [Compound 524]
≤ 2	CCn1ncc2c1-c1cc(F)ccc1OC21CCN(C(=O)c2ccc(OC(C)C)c(C)c2)CC1 [Compound 267]
≤ 2	Cn1ncc2c1-c1ccccc1OC21CCN(C(=O)c2ccc(S(=O)(=O)C(F)(F)F)cc2)CC1 [Compound 663]
≤ 2	CC(C)Oc1ccc(C(=O)N2CCC3(CC2)Oc2ccccc2-c2c3cnn2C)c(Cl)c1 [Compound 581]
≤ 2	CC(C)C(O)c1ccc(C(=O)N2CCC3(CC2)Oc2ccccc2-c2nn(C)cc23)cc1 (stereo not shown) [Compound 4]
≤ 2	COc1cc(C(=O)N2CCC3(CC2)Oc2ccccc2-c2c3cnn2C)ccc1OC(C)(C)C#N [Compound 758]
≤ 2	Cc1cccc(C(=O)N2CCC3(CC2)Oc2ccccc2-c2c3cnn2C)c1C [Compound 797]
≤ 2	CC(C)(O)c1ccc(C(=O)N2CCC3(CC2)Oc2ncccc2-n2c(C(F)(F)F)ccc23)cc1 [Compound 726]

IC50 [µM]	Structure (SMILES)
≤ 2	COc1cc(C(=O)N2CCC3(CC2)Oc2ccccc2-c2c3cnn2C)ccc1C(C)(C)C [Compound 429]
≤ 2	CC(C)Oc1ccc(C(=O)N2CCC3(CC2)Oc2ccccc2-c2nn(C)cc23)cc1CO [Compound 276]
≤ 2	Cc1cc(C(=O)N2CCC3(CC2)Oc2ccccc2-c2c3cnn2C)ccc1S(C)(=O)=O [Compound 141]
> 5	COc1cc(C(=O)N2CCC3(CC2)Oc2ccccc2-c2c3cnn2C)ccc1OCC(N)=O [Compound 507]
≤ 2	Cn1cc2c(n1)-c1ccccc1OC21CCN(C(=O)c2ccc3[nH]ncc3c2)CC1 [Compound 595]
≤ 2	COc1ccc(C(=O)N2CCC3(CC2)Oc2cc(Cl)ccc2-n2cccc23)c(C)c1 [Compound 111]
≤ 2	CCCOc1ccc(C(=O)N2CCC3(CC2)Oc2ccccc2-c2c3cnn2C)cc1OC [Compound 190]
≤ 2	Cn1ncc2c1-c1ccccc1OC21CCN(C(=O)c2ccc3c(c2)C(C)(C)CO3)CC1 [Compound 369]
≤ 2	Cc1cc(C(=O)N2CCC3(CC2)Oc2cccnc2-c2c3cnn2C)ccc1OC(C)C [Compound 414]
≤ 2	Cc1cc(OC(C)C)ccc1C(=O)N1CCC2(CC1)Oc1ccccc1-c1nn(C)cc12 [Compound 188]
2 to 5	CC(C)[S+]([O-])c1ccc(C(=O)N2CCC3(CC2)Oc2ccccc2-c2c3cnn2C)cc1 (stereo not shown) [Compound 666]
≤ 2	COc1cc(S(=O)(=O)C(C)C)ccc1C(=O)N1CCC2(CC1)Oc1ccccc1-c1c2cnn1C [Compound 336]
≤ 2	COc1ccccc1C(=O)N1CCC2(CC1)Oc1ccccc1-c1c2cnn1C [Compound 672]
≤ 2	Cc1cc(C(=O)N2CCC3(CC2)Oc2cc(Cl)ccc2-n2cccc23)ccc1C#N [Compound 453]
≤ 2	Cc1cc(C(C)(C)O)ccc1C(=O)N1CCC2(CC1)Oc1ccc(F)cc1-c1nn(C)cc12 [Compound 796]
≤ 2	Cc1cc(C(=O)N2CCC3(CC2)Oc2ccccc2-c2c3c(C)nn2C)ccc1OC(C)C [Compound 274]
≤ 2	COC(C)(C)c1ccc(C(=O)N2CCC3(CC2)Oc2ccccc2-n2cccc23)cc1C [Compound 817]
